Experimental data published in patent publication EP0882734B1, “5'-Deoxy-cytidine derivatives” (F. Hoffmann-La Roche AG, priority 1997, dated 1998).
Marks after values point to notes of the source that are not given here.

What was measured:
[1] = system: human prostate cancer xenograft PC-3; assay: Enhancement of capecitabine antitumor activity in PC-3 xenograft; conditions: oral
Method: Compound A of Example 6 was examined for its activity to enhance the efficacy of capecitabine in BALB/c nude mice bearing the human prostate cancer xenograft PC-3. Compound A and capecitabine were orally given simultaneously or sequentially 5 successive days per week for 3 weeks starting on day 53 after the tumor inoculation when the tumor becomes palpable. On day 75, tumor volume gain and the percentage of the tumor growth inhibition were calculated.

[2] = mouse, in vivo, 420 min
Method: In this study, fluoropyrimidines, such as 5-FU, doxifluridine [5'-deoxy-5-fluorouridine] and capecitabine [5'-deoxy-5-fluoro-N^4-(n-pentyloxycarbonyl)cytidine], were given to BALB/c nude mice bearing the human gastric cancer xenograft MKN28 in combination with either compound A or 5-EU. Then, 5-FU levels in the plasma and tumor tissues were measured at 0.25, 0.5, 2, 4 and 7 hours after each fluoropyrimidine administration (n = 3 mice), and 5-FU AUC was calculated. […]

[3] = Cytotoxicity of compound A itself (data not shown)
DPD [4] = target: T1, DPD (Mus musculus, UniProt Q8CHR6); assay: DPD activity in liver and tumor tissues of PC-3 xenograft mice after administration; type: in vivo, BALB/c nude mice; conditions: Liver, Compound A 0.5 mmol/kg, 5-EU 0.05 µmol/kg
T1 construct: The liver and tumor tissues were resected out from each group of three mice; from tissue; host or cells: liver (mouse host) and PC-3 tumour xenograft tissue from BALB/c nude mice
T1 sequence (Q8CHR6 1-1025): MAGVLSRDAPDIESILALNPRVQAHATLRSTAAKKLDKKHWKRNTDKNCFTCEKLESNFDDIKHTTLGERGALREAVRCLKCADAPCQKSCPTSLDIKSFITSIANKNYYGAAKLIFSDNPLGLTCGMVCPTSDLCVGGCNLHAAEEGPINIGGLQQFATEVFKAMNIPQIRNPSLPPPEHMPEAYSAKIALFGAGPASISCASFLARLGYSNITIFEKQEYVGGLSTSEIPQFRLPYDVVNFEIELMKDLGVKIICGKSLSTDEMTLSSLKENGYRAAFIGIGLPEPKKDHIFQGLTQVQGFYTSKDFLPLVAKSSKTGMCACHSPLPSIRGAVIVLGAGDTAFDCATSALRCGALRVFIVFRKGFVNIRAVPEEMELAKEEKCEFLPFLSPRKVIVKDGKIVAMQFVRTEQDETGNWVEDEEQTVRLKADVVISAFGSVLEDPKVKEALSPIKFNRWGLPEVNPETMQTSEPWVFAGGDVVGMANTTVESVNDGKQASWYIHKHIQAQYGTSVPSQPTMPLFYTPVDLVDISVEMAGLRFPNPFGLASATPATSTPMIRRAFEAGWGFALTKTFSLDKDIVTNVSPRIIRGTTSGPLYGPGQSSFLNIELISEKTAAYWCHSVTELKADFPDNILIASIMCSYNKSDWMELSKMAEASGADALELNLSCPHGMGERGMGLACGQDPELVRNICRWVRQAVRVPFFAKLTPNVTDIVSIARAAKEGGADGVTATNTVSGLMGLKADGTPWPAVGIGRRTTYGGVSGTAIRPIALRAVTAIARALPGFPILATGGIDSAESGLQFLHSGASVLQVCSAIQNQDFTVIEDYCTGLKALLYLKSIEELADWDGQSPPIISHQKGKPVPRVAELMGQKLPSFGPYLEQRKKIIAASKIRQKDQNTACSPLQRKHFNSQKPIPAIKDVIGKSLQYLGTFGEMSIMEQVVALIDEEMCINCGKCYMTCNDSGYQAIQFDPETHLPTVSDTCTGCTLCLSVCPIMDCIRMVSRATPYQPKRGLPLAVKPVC
Method: (§1) The liver and tumor tissues were resected out from each group of three mice at 2 and 8 hours after the administration of the Compound A (0.5 mmol/kg) and 5-EU ([…]). DPD activity in these tissues was then measured as described elsewhere (Naguib et al., Cancer Research 45, 5405-5412, 1985). […] Table 1. Inhibition of DPD activity by Compound A of Example 6

DPD [5] = target: T2, DPD (Homo sapiens, UniProt Q12882); assay: as above; type: in vivo, BALB/c nude mice; conditions: Tumor (PC-3), Compound A 0.5 mmol/kg, 5-EU 0.05 µmol/kg
T2 construct: The liver and tumor tissues were resected out from each group of three mice; from tissue; host or cells: liver (mouse host) and PC-3 tumour xenograft tissue from BALB/c nude mice
T2 sequence (Q12882 4-1025): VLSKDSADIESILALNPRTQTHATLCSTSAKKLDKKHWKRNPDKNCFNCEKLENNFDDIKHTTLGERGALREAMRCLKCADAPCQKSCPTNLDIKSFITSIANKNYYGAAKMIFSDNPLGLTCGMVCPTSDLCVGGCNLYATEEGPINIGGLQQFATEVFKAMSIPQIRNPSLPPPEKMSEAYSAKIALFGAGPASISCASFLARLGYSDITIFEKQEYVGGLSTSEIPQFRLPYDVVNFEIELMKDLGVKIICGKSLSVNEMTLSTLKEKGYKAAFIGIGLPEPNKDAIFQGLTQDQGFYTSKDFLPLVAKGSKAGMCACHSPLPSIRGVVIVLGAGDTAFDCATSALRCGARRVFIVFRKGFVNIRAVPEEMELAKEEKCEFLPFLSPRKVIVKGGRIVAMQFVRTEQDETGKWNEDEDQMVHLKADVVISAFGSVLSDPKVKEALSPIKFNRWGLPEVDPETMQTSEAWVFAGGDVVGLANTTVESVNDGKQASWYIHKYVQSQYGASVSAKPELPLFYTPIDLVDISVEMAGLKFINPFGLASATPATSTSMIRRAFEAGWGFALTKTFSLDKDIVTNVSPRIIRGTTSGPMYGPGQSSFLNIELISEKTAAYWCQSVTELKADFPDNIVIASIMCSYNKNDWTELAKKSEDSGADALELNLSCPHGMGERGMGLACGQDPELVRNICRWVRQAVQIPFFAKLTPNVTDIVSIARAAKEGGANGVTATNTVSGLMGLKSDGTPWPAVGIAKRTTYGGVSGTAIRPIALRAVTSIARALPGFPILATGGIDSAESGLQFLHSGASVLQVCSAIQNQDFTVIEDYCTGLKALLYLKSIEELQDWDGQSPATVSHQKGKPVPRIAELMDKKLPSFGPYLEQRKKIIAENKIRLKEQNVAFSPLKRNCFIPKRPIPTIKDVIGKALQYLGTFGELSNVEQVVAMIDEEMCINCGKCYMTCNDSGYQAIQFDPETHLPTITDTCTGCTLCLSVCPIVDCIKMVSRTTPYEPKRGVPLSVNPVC
Method: as §1

[6] = Capecitabine 1.0 mmol/kg/d + Compound A 1.0 µmol/kg/d given one hour prior to capecitabine
[7] = Capecitabine 1.0 mmol/kg/d + Compound A 1.0 µmol/kg/d given simultaneously
[8] = 2 hr after administration, control 288
[9] = 8 hr after administration, control 162
[10] = 2 hr after administration, control 31
[11] = 8 hr after administration, control 29

CCCCCOC(=O)Nc1nc(=O)n([C@@H]2O[C@H](C)[C@@H](O)[C@H]2O)cc1F [Capecitabine, 5'-deoxy-5-fluoro-N^4-(n-pentyloxycarbonyl)cytidine]
Tumor growth inhibition (%) Day 75 ([1]; Capecitabine 1.0 mmol/kg/d alone, 5 successive days per week for 3 weeks): 23% | Tumor volume change (mm^3) Day 53-75 ([1]; Capecitabine 1.0 mmol/kg/d alone, 5 successive days per week for 3 weeks, control 981): 757 mm^3 | Body weight change (g) Day 75 ([1]; Capecitabine 1.0 mmol/kg/d alone, control -3.6): -3.4 g | 5-FU AUC Tumor [2]: 30 nmolohr/mL

C#Cc1cn([C@@H]2O[C@H](C)[C@@H](O)[C@H]2O)c(=O)nc1NC(=O)OCCCCC [Compound A, 5'-deoxy-5-ethynyl-N^4-(n-pentyloxycarbonyl)cytidine]
Body weight change (g) Day 75 [1, 6]: -0.3 g | Tumor growth inhibition (%) Day 75 [1, 6]: 80% | Tumor volume change (mm^3) Day 53-75 ([1]; Capecitabine 1.0 mmol/kg/d + Compound A 1.0 µmol/kg/d given one hour prior to capecitabine, p < 0.05 vs control): 201* mm^3 | Body weight change (g) Day 75 [1, 7]: -1.8 g | Tumor growth inhibition (%) Day 75 [1, 7]: 67% | Tumor volume change (mm^3) Day 53-75 ([1]; Capecitabine 1.0 mmol/kg/d + Compound A 1.0 µmol/kg/d given simultaneously, p < 0.05 vs control): 323* mm^3 | cytotoxicity [3]: not cytotoxic | DPD activities (DPD [4]; [8]): 177 pmol/mg protein/min | DPD activities (DPD [4]; [9]): 326 pmol/mg protein/min | DPD activities (DPD [5]; [10]): 9 pmol/mg protein/min | DPD activities (DPD [5]; [11]): 9 pmol/mg protein/min

C[C@H]1O[C@@H](n2cc(F)c(=O)[nH]c2=O)[C@H](O)[C@@H]1O [Doxifluridine, 5'-deoxy-5-fluorouridine]
5-FU AUC Plasma [2]: 2.6 nmolohr/mL | 5-FU AUC Tumor [2]: 8.0 nmolohr/mL

C#Cc1c[nH]c(=O)[nH]c1=O [Example 5-EU, 5-ethynyluracil]
DPD activities (DPD [4]; [8]): 46 pmol/mg protein/min | DPD activities (DPD [4]; [9]): 83 pmol/mg protein/min | DPD activities (DPD [5]; [10]): 17 pmol/mg protein/min | DPD activities (DPD [5]; [11]): 13 pmol/mg protein/min
